# Test results taken from PMC7766124, “Improved Cell Selectivity of Pseudin-2 via Substitution in the Leucine-Zipper Motif: In Vitro and In Vivo Antifungal Activity” (Antibiotics, 2020).
# Where two headings read alike, the source gives them in different places. No end group written: not given here.
# Assays:
# A. fumigatus = format: cell-based, A. fumigatus (KCTC 6145); conditions: 36 h
# Description: (§1) Aspergillus flavus (KCTC 6905), A. fumigatus (KCTC 6145), Fusarium moniliforme (KCTC 6149), F. oxysporum (KCTC 16909), C. albicans (KCTC 7270), C. krusei (CCARM 14017), C. parapsilosis (CCARM 14016), C. tropicalis (KCTC 7221), and T. beigelii (KCTC 7707) were obtained from the Korea Collection for Type Cultures (KCTC) and Culture Collection of Antimicrobial Resistant Microbes (CCARM). Mold and yeast fungi were pre-grown on potato dextrose (PD) and yeast extract peptone dextrose (YPD) agars, respectively.
# (§2) Antifungal activity of peptides was performed by microtiter plate assays. Fungal conidia from four-day-old molds were collected using 0.08% Triton X-100 (v/v), and pre-cultivated yeast cells were adjusted to 2 × 10^4 spores/mL in 10 mM sodium phosphate buffer (SP, pH 7.2) or 10 mM 2-(N-morpholino)ethanesulfonic acid (MES) buffer (pH 5.5) supplemented with 20% culture medium, followed by addition to peptide solutions (0.25, 0.5, 1, 1.5, 2, 4, 6, 8, 12, 16, 32, 48, and 64 µM) in 96-well microtiter plates. After incubation for 36 h at 28 °C, the hyphal growth of conidia and the proliferation of yeast cells were observed under a light microscope. All assays were performed in triplicate. The MIC values were defined as the lowest concentration of samples that reduced fungal germination (for mold) or cell proliferation (for yeast) by more than 90% [34].
# T. beigelii = format: cell-based, T. beigelii (KCTC 7707); conditions: 36 h
# Description: as §1, §2
# A. flavus = format: cell-based, Aspergillus flavus (KCTC 6905); conditions: 36 h
# Description: as §1, §2
# C. krusei = format: cell-based, C. krusei (CCARM 14017); conditions: 36 h
# Description: as §1, §2
# [1] = Calcein leakage from fungus-mimic artificial vesicles; conditions: fungus-mimic PC/PE/PI/ergosterol vesicles, 20 μM lipid; peptide/lipid molar ratio 0.05; 100% = 0.03% Triton X-100; three independent experiments
# Method: The permeability of peptides in calcein-entrapped artificial liposomes was assayed by measuring calcein leakage. The desired mixtures of lipids (PC/PE/PI/ergosterol, 5:4:1:2 and PC/CH/SM, 2:1:1, weight ratio) were dissolved in chloroform at 10 mg/mL, dried in a glass tube under nitrogen, and then lyophilized overnight to remove residual solvent. The dried lipid films were resuspended in 1 mL of dye solution (80 mM calcein, 10 mM HEPES buffer, pH 7.2) at 50 °C and vortexed, followed by freeze-thawing for nine cycles and extrusion with polycarbonate filters (0.2-μm pore-size) using an Avanti Mini-Extruder (Avanti Polar Lipids Inc., Alabaster, AL, USA). Free calcein was removed using PD-10 desalting columns (GE Healthcare Life Science, Seoul, Korea). Calcein-entrapped vesicles of 20 μM lipids were incubated with peptides at concentrations of […], 0.02, 0.05, and 0.1 molar ratio (peptide/lipid) and the fluorescence was assessed at 480 (Ex) and 520 (Em) nm using a microtiter SpectraMax M5 reader (Molecular Devices). Complete (100%) release was achieved by the addition of 0.03% Triton X-100 (v/v).
# C. tropicalis [2] = format: cell-based, C. tropicalis (KCTC 7221); conditions: 36 h
# Description: as §1, §2
# F. moniliforme = format: cell-based, Fusarium moniliforme (KCTC 6149); conditions: 36 h
# Description: as §1, §2
# C. albicans = format: cell-based, C. albicans (KCTC 7270); conditions: 36 h
# Description: as §1, §2
# C. tropicalis [3] = assay: C. tropicalis skin infection mouse model; format: in vivo, BALB/C female mice
# Method: All animal experiments and procedures were performed with the approval of the Institutional Animal Care and Use Committee (IACUC) of Sunchon National University, Korea (SCNU IACUC-2019-10). BALB/C female mice (six weeks old) were obtained from Koatech Co. (Pyongtaek, Gyeonggido, Korea) and divided into three groups (n = 4): control, pseudin-2, and P2-LZ4 groups. The skin on the back of each mouse was shaved 1 h before infection, and the mice were anesthetized by inhalation of 5% (induction) and 2% (maintenance) isoflurane in pure oxygen. Mice were then subjected to subcutaneous infection with 100 µL C. tropicalis (10^7 cells/mL) by injection into the dorsum of each mouse. At 24 h after infection, 100 µL PBS, pseudin-2 (0.1 mg/mL), or P2-LZ4 (0.1 mg/mL) was injected into the same site. At four days after peptide injection, mice were euthanized by CO2 inhalation, and the infected skin tissues were excised, fixed in 4% paraformaldehyde, embedded in paraffin, stained with H&E, and observed by light microscopy.
# [4] = system: Candida albicans, C. krusei, C. tropicalis, and Trichosporon beigelii; assay: Antifungal microtiter plate assay (MIC), range over pathogenic yeasts; format: cell-based; conditions: neutral pH; range over four yeasts
# Method: as §2
# F. oxysporum = format: cell-based, F. oxysporum (KCTC 16909); conditions: 36 h
# Description: as §1, §2
# C. parapsilosis = format: cell-based, C. parapsilosis (CCARM 14016); conditions: 36 h
# Description: as §1, §2
substance,measurement,setting,value
GLNALKKVAQGIHEAAKLINNHVQ-NH2 [P2-LZ4],MIC,A. fumigatus; pH 5.5,16 µM
same,MIC,A. fumigatus; pH 7.2,32 µM
same,MIC,T. beigelii; pH 5.5,1 µM
same,MIC,T. beigelii; pH 7.2,1.5 µM
same,MIC,A. flavus; pH 5.5,16 µM
same,MIC,A. flavus; pH 7.2,32 µM
same,MIC,C. krusei; pH 5.5,8 µM
same,MIC,C. krusei; pH 7.2,6 µM
same,leakage of calcein,[1],80.5%
same,MIC,C. tropicalis [2]; pH 5.5,1 µM
same,MIC,C. tropicalis [2]; pH 7.2,2 µM
same,MIC,F. moniliforme; pH 5.5,32 (32) µM
same,MIC,F. moniliforme; pH 7.2,32 (32) µM
same,MIC,C. albicans; pH 5.5,8 µM
same,MIC,C. albicans; pH 7.2,4 µM
same,histological evaluation of skin tissues (H&E),"C. tropicalis [3]; 100 µL of 0.1 mg/mL peptide s.c. 24 h after infection, tissues taken four days after peptide injection",nearly identical to those of the PBS-treated mice
same,skin lesions (swelling and redness in the dorsal skin),"C. tropicalis [3]; 100 µL of 0.1 mg/mL peptide s.c. 24 h after s.c. infection, monitored seven days, n = 4",no obvious skin lesions
same,MICs against pathogenic yeast cells,[4],1.5 to 6 µM
same,MIC,F. oxysporum; pH 5.5,16 µM
same,MIC,F. oxysporum; pH 7.2,2 µM
same,MIC,C. parapsilosis; pH 5.5,> 64 µM
same,MIC,C. parapsilosis; pH 7.2,48 µM
